Measured values reported in US20230338531A1, “COMPOSITIONS AND USES OF CD45 TARGETED CHIMERIC ANTIGEN RECEPTOR MODIFIED T CELLS” (City of Hope, priority 2020, published 2023).

Legend:
PTPRC (CD45) gene = assay: CD45 protein expression after PTPRC (CD45) gene knockout by CRISPR/Cas9; format: cell-based; conditions: T cells after CRISPR/cas9 mediated CD45KO vs wild type
Description: FIGS. 11A-11B show CD45 protein expression profile after PTPRC (CD45) gene knockout by CRISPR/Cas9 gene editing.
Cell Isolation, CD45 gene editing, CD45-CAR Lentiviral Transduction, and Ex Vivo Expansion_Leukapheresis products were obtained from consented research participants (healthy donors) under protocols approved by the City of Hope Internal Review Board (IRB). On the day of leukapheresis, peripheral blood mononuclear cells (PBMC) were isolated by density gradient centrifugation over Ficoll-Paque (GE Healthcare) followed by multiple washes in PBS/EDTA (Miltenyi Biotec). Cells were rested overnight at room temperature (RT) on a rotator, and subsequently washed and resuspended in X-VIVO T cell medium (Lonza) containing 10% FBS (complete X-VIVO). Up to 5.0×10^9 PBMC were incubated with anti-CD14 and anti-CD25 microbeads (Miltenyi Biotec) for 30 min at RT and magnetically depleted using the CliniMACS® system (Miltenyi Biotec) according to the manufacturer's protocol and these were termed depleted PBMCs (dPBMC). dPBMC were frozen in CryoStor® CS5 (StemCell Technologies) until further processing. […]
Experiments were then conducted to quantify the CD45 protein expression on wild type and CD45 knock out T cells after PTPRC (CD45) gene knockout by CRISPR/Cas9 gene editing. hCD45gRNA #3_E12, […] […]

[1] = test system: iCasp9-CD45-CAR lentivirus transduced HT1080 cells; assay: Induced cell depletion by iCasp9 safety switch; format: cell-based; conditions: 100 μM, 24h, normalized to non-treated group
Procedure: To test the effects of a suicide switch as a safety precaution, experiments were conducted to investigate the induced cell depletion effect of rimiducid on iCasp9-CD45-CAR lentivirus transduced cells. iCasp9 can be activated by a specific chemical inducer of dimerization (CID) such as rimiducid, leading to efficient elimination of iCasp9 engineered cell.
The order of iCaspase 9 and CD45 scFv components can be switched (e.g., promoter-CD45CAR-T2A-iCaspase9-etc). HT1080 cells were transduced by lentivirus. […] Transduced HT1080 cells were seeded in 24 well plate and treated with 100 μM ramiducid for 24h normalized and compared to non-treated group, and the relative survival cell number was quantified (FIG. 10C). Treating the iCasp9-CD45-CAR cells with ramiducid reduced cell survival to 36% (FIG. 10C).

Compound | CD45 expression (flow cytometry, MFI) (PTPRC (CD45) gene) | relative survival cell number [1] [%]
CUUCUACAAAAAAUAAUCUG (SEQ ID NO: 39) (listed as RNA, chemistry not given here) [hCD45gRNA #3_E12, gRNA targeting PTPRC exon 12] | decreasing expression of CD45 | 
CC[C@H](C(=O)N1CCCC[C@H]1C(=O)O[C@H](CCc1ccc(OC)c(OC)c1)c1cccc(OCC(=O)NCCNC(=O)COc2cccc([C@@H](CCc3ccc(OC)c(OC)c3)OC(=O)[C@@H]3CCCCN3C(=O)[C@@H](CC)c3cc(OC)c(OC)c(OC)c3)c2)c1)c1cc(OC)c(OC)c(OC)c1 [ramiducid] |  | 36
